Results from patent publication US20090291919A1, “Compositions and Methods for Treating or Preventing Ophthalmic Light Toxicity” (University of Florida Research Foundation, Inc., priority 2006, published 2009).
“Also recorded” adds a separate entry of the source.

Columns and labels:
[1] = Absorption of the compound by itself in the visible spectrum
Method: (§1) To test whether this compound associates with wild-type (WT) opsin to form pigment, it was added to opsin solution in vitro.

[2] = system: purified wt (wild-type) opsin; assay: Pigment formation of compound alone with opsin (500 nm absorbing pigment); conditions: compound added to opsin without 11-cis-retinal
Method: as §1

purified WT opsin = assay: Opsin regeneration: pigment (rhodopsin) formation with 11-cis-retinal in presence of compound; conditions: for inhibition of pigment formation of opsin with 11-cis-retinal / of binding of 11-cis-retinal to opsin: in vitro, result in words
Method: In a typical competition assay of the invention, a compound is sought that will tie up the retinal binding pocket of the opsin protein. Thus, the assay seeks to identify a non-retinoid compound (one that will not be tightly regulated by the retina as to amount entering rod cells) that competes with 11-cis-retinal. Over time this will slow the rate of formation of rhodopsin relative to the rate when 11-cis-retinal alone is present. In one embodiment, the assay is conducted in the presence of 11-cis-retinal, and the rate of formation of rhodopsin is measured as a way of determining competition for the retinal binding pocket, for example, by determining the rate of increase in the 500 nm peak characteristic for rhodopsin. No antibodies for rhodopsin are required for this assay.

Compound | absorption in the visible spectrum [1] | formation of a 500 nm absorbing pigment with opsin [2] | extent of inhibition of regeneration compared with β-ionone (purified WT opsin; SN10011 2 and 5 mM vs β-ionone) | inhibition of pigment formation of opsin with 11-cis-retinal / of binding of 11-cis-retinal to opsin (purified WT opsin) | inhibition of pigment formation of opsin with 11-cis-retinal / of binding of 11-cis-retinal to opsin (purified WT opsin; listed as SN 10011)
CC(=O)c1c(C)n[nH]c1C [SN10011, 1-(3,5-dimethyl-1H-pyrazol-4-yl)ethanone] | did not show any absorption in the visible spectrum; also recorded: does not absorb in the visible spectrum | No pigment was formed; also recorded: no 500 nm absorbing pigment was generated | much lower | reversibly inhibits binding of 11-cis-retinal; also recorded: significant effect on inhibition of pigment formation; also recorded: inhibited | inhibits the binding of 11-cis-retinal to opsin in vitro
CC(=O)/C=C/C1=C(C)CCCC1(C)C [β-ionone, reference compound] | – | does not form a light absorbing pigment; also recorded: does not itself form a 500 nm absorbing pigment; also recorded: no 500 nm absorbing pigment was formed | – | inhibit binding of retinal to the site; also recorded: inhibited opsin regeneration in a dose dependent manner | –
